{"source": "ChEMBL document CHEMBL1201862", "about": "“PubChem BioAssay data set” (2004)", "key": {"[1]": {"biological_target": "Dual specificity tyrosine-phosphorylation-regulated kinase 1B (Homo sapiens, UniProt Q9Y463)", "sequence (Q9Y463 whole entry)": "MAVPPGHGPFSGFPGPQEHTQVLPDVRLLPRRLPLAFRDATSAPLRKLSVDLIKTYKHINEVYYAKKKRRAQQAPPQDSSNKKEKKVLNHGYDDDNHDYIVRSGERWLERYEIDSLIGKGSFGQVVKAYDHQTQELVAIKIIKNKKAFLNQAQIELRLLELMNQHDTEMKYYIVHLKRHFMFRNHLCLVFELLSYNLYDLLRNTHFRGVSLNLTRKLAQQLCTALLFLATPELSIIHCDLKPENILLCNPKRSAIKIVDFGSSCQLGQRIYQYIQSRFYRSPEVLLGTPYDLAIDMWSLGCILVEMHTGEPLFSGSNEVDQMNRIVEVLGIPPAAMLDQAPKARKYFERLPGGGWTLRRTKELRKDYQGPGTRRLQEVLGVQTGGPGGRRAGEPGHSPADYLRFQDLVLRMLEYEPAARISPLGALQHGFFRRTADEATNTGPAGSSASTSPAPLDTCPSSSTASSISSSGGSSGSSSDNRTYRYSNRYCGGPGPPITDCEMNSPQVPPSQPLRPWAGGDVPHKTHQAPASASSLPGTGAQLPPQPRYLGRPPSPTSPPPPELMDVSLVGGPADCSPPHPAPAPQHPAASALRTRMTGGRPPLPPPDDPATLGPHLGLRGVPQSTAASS", "experiment": "Navigating the Kinome. Panel member name: DYRK1B", "assay_type": "functional"}, "[2]": {"biological_target": "Tyrosine-protein kinase receptor TYRO3 (Homo sapiens, UniProt Q06418)", "assay_type": "functional"}, "[3]": {"biological_target": "Multidrug resistance protein CDR1 (Candida albicans, UniProt P43071)", "sequence (P43071 whole entry, looked up)": "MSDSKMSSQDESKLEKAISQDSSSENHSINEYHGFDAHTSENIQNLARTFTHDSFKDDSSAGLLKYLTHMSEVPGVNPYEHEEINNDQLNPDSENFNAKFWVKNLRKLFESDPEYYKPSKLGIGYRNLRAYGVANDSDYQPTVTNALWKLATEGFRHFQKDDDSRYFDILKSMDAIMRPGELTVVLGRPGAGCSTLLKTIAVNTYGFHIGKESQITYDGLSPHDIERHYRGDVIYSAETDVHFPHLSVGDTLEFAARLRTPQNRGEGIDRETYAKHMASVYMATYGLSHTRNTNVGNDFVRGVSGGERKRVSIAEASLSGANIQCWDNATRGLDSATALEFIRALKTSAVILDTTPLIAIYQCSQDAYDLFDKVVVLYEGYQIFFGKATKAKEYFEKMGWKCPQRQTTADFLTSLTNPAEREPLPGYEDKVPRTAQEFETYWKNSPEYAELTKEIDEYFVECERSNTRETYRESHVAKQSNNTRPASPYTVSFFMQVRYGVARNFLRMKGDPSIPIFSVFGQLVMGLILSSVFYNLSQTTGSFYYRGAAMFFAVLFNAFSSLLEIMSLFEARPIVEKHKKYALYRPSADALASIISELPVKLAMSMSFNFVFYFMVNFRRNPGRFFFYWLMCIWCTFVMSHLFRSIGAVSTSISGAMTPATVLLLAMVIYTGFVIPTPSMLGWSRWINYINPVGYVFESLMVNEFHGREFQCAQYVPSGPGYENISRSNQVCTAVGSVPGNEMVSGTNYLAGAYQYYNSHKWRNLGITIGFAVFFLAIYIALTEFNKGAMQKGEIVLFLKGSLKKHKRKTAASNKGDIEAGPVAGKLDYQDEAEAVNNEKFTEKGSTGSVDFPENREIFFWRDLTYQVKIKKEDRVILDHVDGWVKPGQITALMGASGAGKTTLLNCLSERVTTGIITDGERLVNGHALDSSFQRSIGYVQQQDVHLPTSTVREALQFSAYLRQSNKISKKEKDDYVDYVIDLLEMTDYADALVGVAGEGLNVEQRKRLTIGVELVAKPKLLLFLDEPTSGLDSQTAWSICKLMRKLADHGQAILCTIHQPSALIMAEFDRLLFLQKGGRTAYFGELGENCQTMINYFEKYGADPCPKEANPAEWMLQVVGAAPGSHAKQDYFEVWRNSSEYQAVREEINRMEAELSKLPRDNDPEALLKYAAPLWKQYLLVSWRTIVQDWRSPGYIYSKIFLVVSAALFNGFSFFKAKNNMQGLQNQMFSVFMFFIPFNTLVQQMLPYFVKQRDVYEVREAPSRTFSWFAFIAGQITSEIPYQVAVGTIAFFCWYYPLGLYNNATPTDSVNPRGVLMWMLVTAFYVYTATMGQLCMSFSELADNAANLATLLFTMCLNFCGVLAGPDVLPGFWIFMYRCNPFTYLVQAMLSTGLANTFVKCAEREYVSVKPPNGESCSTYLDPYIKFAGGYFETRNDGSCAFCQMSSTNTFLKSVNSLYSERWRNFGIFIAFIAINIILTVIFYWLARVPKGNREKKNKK", "experiment": "CaCDR1 efflux pump inhibitors in yeast, dose response, S. cerevisiae AD1-8u, singleplex, Cherry Pick1 hits (AID 588606)", "assay_type": "functional"}, "[4]": {"biological_target": "Cyclin-dependent kinase 8 (Homo sapiens, UniProt P49336)", "sequence (P49336 whole entry)": "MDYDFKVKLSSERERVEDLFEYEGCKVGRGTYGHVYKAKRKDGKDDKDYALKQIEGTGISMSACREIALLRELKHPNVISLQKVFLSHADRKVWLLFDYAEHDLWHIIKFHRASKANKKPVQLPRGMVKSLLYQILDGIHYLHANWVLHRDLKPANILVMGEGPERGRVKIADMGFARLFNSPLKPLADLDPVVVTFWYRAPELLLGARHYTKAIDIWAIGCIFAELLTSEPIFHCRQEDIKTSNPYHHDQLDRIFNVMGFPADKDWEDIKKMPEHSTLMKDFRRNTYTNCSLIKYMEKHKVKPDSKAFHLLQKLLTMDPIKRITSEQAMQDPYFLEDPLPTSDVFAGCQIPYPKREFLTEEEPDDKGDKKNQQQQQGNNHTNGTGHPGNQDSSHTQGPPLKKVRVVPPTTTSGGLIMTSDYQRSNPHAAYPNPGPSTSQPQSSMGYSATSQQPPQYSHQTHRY", "experiment": "Navigating the Kinome. Panel member name: CDK8", "assay_type": "functional"}, "[5]": {"biological_target": "Dual specificity protein kinase CLK4 (Homo sapiens, UniProt Q9HAZ1)", "assay_type": "functional"}, "Aurora kinase A": {"biological_target": "Aurora kinase A (Homo sapiens, UniProt O14965)", "assay_type": "functional"}, "Aurora kinase B": {"biological_target": "Aurora kinase B (Homo sapiens, UniProt Q96GD4)", "assay_type": "functional"}, "[6]": {"biological_target": "Vascular endothelial growth factor receptor 2 (Homo sapiens, UniProt P35968)", "sequence (P35968 whole entry)": "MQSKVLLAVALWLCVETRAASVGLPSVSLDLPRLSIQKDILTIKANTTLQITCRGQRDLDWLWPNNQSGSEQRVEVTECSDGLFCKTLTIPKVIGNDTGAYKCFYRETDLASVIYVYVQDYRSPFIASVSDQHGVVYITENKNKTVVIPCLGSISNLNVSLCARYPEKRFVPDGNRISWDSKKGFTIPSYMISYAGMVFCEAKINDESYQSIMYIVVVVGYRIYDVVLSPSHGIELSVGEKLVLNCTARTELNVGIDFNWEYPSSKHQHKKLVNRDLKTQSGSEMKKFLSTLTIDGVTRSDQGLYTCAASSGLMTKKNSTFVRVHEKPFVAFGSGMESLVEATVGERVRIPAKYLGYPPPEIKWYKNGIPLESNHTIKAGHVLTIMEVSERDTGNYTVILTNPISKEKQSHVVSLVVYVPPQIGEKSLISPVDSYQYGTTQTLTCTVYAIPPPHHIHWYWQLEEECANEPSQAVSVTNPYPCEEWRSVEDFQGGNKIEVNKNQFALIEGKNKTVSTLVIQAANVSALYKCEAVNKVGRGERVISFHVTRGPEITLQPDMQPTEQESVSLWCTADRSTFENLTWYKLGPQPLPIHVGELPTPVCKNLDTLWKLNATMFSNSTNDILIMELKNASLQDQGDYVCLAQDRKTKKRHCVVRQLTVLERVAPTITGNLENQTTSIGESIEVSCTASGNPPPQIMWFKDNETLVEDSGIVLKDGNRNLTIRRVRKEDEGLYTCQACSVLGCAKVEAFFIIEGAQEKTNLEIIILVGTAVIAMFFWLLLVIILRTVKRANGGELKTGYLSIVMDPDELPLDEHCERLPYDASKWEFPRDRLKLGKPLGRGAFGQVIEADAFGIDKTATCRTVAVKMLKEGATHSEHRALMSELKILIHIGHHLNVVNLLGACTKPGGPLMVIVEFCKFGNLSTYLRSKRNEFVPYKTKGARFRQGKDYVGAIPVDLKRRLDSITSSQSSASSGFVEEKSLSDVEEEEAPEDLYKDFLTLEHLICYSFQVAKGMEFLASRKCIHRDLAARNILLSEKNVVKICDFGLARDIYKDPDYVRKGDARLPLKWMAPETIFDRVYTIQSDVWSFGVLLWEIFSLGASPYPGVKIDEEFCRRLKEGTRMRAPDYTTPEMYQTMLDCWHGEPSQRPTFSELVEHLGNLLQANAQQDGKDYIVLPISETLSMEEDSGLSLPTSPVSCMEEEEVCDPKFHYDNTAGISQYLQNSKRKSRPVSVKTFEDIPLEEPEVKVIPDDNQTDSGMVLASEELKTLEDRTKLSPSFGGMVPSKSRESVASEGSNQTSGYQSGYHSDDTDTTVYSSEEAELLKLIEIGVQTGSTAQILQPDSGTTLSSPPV", "assay_type": "functional"}, "[7]": {"biological_target": "T1, Endoribonuclease toxin MazF (Escherichia coli K-12, UniProt P0AE70)", "T1 sequence (P0AE70 whole entry)": "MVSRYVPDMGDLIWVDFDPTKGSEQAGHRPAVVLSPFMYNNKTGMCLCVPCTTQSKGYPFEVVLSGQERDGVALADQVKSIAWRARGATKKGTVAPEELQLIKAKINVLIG", "experiment": "fluorescent RNA oligo signal without MazF, dose response, counter-screen for MazEF activator project, biochemical, fluorescence, single-stranded RNase substrate (AID 588502)", "assay_type": "functional"}, "Protein Rev": {"biological_target": "Protein Rev (Human immunodeficiency virus type 1 group M subtype B (isolate HXB2)(HIV-1), UniProt P04618)", "experiment": "inhibitors of Rev binding to RRE RNA, dose response, biochemical, fluorescence polarization, HIV-1 (AID 434976)", "set-up": "species or system Human immunodeficiency virus 1"}, "Caspase-3": {"biological_target": "T2, Caspase-3 (Homo sapiens, UniProt P42574)", "T2 sequence (P42574 whole entry)": "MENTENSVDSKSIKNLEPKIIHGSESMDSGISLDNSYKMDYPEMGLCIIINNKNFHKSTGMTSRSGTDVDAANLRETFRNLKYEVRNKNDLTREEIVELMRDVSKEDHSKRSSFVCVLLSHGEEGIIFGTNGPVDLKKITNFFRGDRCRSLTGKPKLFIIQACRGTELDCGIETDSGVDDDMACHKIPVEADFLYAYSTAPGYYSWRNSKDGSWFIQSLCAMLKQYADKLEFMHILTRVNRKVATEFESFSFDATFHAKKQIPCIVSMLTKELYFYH", "experiment": "procaspase-3 activators, dose response, biochemical, absorbance (AID 489014)"}, "[8]": {"biological_target": "T1, Endoribonuclease toxin MazF", "experiment": "MazF toxin RNase activators, dose response, biochemical, fluorescence, single-stranded RNA substrate, uHTS hits (AID 588481)", "assay_type": "functional"}, "[9]": {"biological_target": "Female germline-specific tumor suppressor gld-1 (Caenorhabditis elegans, UniProt Q17339)", "sequence (Q17339 whole entry)": "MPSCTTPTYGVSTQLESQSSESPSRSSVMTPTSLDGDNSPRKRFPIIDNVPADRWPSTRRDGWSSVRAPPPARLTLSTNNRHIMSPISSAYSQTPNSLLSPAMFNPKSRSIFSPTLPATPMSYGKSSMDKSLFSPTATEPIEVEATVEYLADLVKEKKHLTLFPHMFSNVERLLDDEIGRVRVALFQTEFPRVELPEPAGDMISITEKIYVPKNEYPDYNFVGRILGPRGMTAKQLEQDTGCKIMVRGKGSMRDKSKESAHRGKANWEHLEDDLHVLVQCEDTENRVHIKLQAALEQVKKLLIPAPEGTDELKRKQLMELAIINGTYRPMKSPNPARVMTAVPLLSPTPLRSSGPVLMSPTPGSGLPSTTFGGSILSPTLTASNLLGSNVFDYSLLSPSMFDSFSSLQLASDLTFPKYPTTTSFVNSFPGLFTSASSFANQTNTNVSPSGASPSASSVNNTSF", "experiment": "inhibitors of GLD-1 binding to TGE RNA, dose response, biochemical, fluorescence polarization, C. elegans (AID 2802);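 also: fluorescence polarization of labeled TGE RNA bound by purified gld-1 protein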"}, "Caspase-7": {"biological_target": "Caspase-7 (Homo sapiens, UniProt P55210)", "experiment": "procaspase-7 activators, dose response, counter-screen for procaspase-3 activator project, biochemical, absorbance (AID 489013)"}, "[10]": {"biological_target": "Protein disulfide-isomerase (Homo sapiens, UniProt P07237)", "sequence (P07237 whole entry)": "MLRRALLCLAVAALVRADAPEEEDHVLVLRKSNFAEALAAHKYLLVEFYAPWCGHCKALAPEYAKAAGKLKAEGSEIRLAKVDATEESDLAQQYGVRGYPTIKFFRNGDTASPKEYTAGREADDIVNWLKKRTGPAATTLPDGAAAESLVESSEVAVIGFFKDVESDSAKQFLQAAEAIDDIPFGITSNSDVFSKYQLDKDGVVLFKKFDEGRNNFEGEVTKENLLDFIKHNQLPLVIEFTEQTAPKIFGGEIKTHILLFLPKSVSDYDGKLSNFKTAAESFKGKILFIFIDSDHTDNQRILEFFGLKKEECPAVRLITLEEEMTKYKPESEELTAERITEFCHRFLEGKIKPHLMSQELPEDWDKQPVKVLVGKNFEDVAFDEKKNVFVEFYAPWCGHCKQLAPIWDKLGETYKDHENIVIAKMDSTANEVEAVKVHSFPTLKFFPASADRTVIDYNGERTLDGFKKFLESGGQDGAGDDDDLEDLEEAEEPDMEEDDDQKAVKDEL", "experiment": "PDI inhibitors, insulin aggregation turbidity, dose response, biochemical, absorbance, cherry-picked samples (AID 602350)", "assay_type": "functional"}}, "note": "Active and inactive are the calls of the source.", "data": [{"smiles": "O=C1NC(=S)N(c2ccccc2)C1=O", "values": [{"measurement": "Ki", "setting": "[1]", "value": "79.4 µM (active)"}, {"measurement": "Ki", "setting": "[2]", "value": "79.4 µM (active)"}]}, {"smiles": "CCSc1cc(N2CCOCC2)nc(-c2ccccc2)n1", "values": [{"measurement": "EC50", "setting": "[3]", "value": "0.016 µM (active)"}]}, {"smiles": "O=C(Nc1cccc2[nH]ncc12)NC1CCc2c1cccc2N1CCCC1", "note": "(stereo not given)", "values": [{"measurement": "Ki", "setting": "[4]", "value": "2.51 µM (active)"}, {"measurement": "Ki", "setting": "[5]", "value": "0.794 µM (active)"}]}, {"smiles": "COc1ccc(-c2cc(=O)c3c(O)c(OC)c(OC)cc3o2)cc1O", "note": "[EUPATORIN]", "values": [{"measurement": "Ki", "setting": "Aurora kinase A", "value": "1 µM (active)"}, {"measurement": "Ki", "setting": "Aurora kinase B", "value": "0.0398 µM (active)"}, {"measurement": "Ki", "setting": "[6]", "value": "0.794 µM (active)"}]}, {"smiles": "CC(=O)Oc1cccc2c1C(=O)c1c(OC(C)=O)cc(C(=O)O)cc1C2=O", "note": "[DIACEREIN]", "values": [{"measurement": "EC50", "setting": "[7]", "value": "> 99 µM (inactive)"}, {"measurement": "IC50", "setting": "Protein Rev", "value": "> 75.4 µM (not active)"}, {"measurement": "EC50", "setting": "Caspase-3", "value": "7.89 µM (active)"}, {"measurement": "EC50", "setting": "[8]", "value": "> 99 µM (inactive)"}, {"measurement": "IC50", "setting": "[9]", "value": "7.31 µM (active)"}, {"measurement": "EC50", "setting": "Caspase-7", "value": "14.8 µM (inactive)"}]}, {"smiles": "C[C@@H]1CN([C@@H](C)CO)C(=O)c2cc(NC(=O)Cc3cn(C)c4ccccc34)ccc2O[C@H]1CN(C)S(=O)(=O)c1ccc(F)cc1", "values": [{"measurement": "AC50", "setting": "[10]", "value": "2.08 µM (active)"}]}]}
